Data taken from ChEMBL document CHEMBL1150927, “Antineoplastic agents. 398. Isolation and structure elucidation of cephalostatins 18 and 19” (1998).
≈ marks a conversion by molar mass, not a printed value.

Experiments:
Format in all cases: functional
[1] = Growth inhibition of human NCI60 cells
KM-20L2 = assay: Growth inhibition of human KM20L2 cells
A498 = assay: Growth inhibition of human A498 cells
SK-MEL-5 = assay: Growth inhibition of human SK-MEL-5 cells
NCI-H460 = assay: Growth inhibition of human NCI-H460 cells
SF-295 = assay: Growth inhibition of human SF295 cells
P388 = assay: Cytotoxicity against mouse P388 cells; settings: read-out: ED50 (the source's name)
OVCAR-3 = assay: Growth inhibition of human OVCAR-3 cells

GI50 (SK-MEL-5) | GI50 (NCI-H460) | GI50 (OVCAR-3) | SMILES | GI50 [1] | GI50 (KM-20L2) | GI50 (A498) | GI50 (SF-295) | EC50 (P388)
< 1 ng/mL | < 1 ng/mL | < 1 ng/mL | CO[C@H]1c2nc3c(nc2C[C@@H]2CC[C@H]4C5=C[C@@H]6O[C@]7(O[C@](C)(CO)C[C@H]7O)[C@@H](C)[C@]6(O)[C@@]5(C)[C@H](O)C[C@@H]4[C@]21C)C[C@@]1(C)[C@@H](CC[C@H]2C4=CC[C@@H]5[C@H](C)[C@@]6(OC[C@]45C(=O)C[C@@H]21)OC(C)(C)C[C@H]6O)C3 [CEPHALOSTATIN 18] | 21.7 nM | < 1 ng/mL | < 1 ng/mL | < 1 ng/mL | 4.3 ng/mL (≈ 4.57 nM)
< 1 ng/mL | < 1 ng/mL | < 1 ng/mL | CO[C@H]1c2nc3c(nc2C[C@@H]2CC[C@H]4C5=CC[C@@H]6[C@H](C)[C@@]7(OC[C@]56C(=O)C[C@@H]4[C@]21C)OC(C)(C)C[C@H]7O)C[C@@]1(C)[C@@H](CC[C@H]2C4=C[C@@H]5O[C@]6(O[C@](C)(CO)C[C@H]6O)[C@@H](C)[C@]5(O)[C@@]4(C)[C@H](O)C[C@@H]21)C3 [CEPHALOSTATIN 19] | 16.6 nM | < 1 ng/mL | < 1 ng/mL | < 1 ng/mL | 7.4 ng/mL (≈ 7.86 nM)
– | – | – | C[C@@H]1[C@]2(O[C@H]3C=C4[C@@H]5CC[C@H]6Cc7nc8c(nc7C[C@]6(C)[C@H]5C[C@@H](O)[C@]4(C)[C@]31O)C[C@@H]1CC[C@H]3C4=CC[C@@H]5[C@H](C)[C@@]6(OC[C@]45C(=O)C[C@@H]3[C@@]1(C)C8)OC(C)(C)C[C@H]6O)O[C@](C)(CO)C[C@H]2O [CEPHALOSTATIN 1] | 2.2 nM | – | – | – | –
